Consider two molecules from patent US20050267124A1, “Pharmaceutical compositions comprising NEP-inhibitors, inhibitors of the endogenous producing system and PDEV inhibiitors” (Solvay Pharmaceuticals GmbH, priority 2004, published 2005).

For experiment [1], the system named is spontaneously hypertensive rats (SHR). The experiment in a line: Effect on blood pressure in spontaneously hypertensive rats (telemetry). The class given is in vivo, rat. As to conditions: i.v. sildenafil 3 mg/kg, alone or with compound of Formula IV 10 μmol/kg, change vs. baseline averaged over last 15 min of 30 min after treatment. From the text: (§1) The results are expressed as mean±SEM of the maximal systolic blood pressure increase (from baseline) observed after the Big-ET challenge (n: number of animals). 2. Effect on Blood Pressure in Spontaneously Hypertensive Rats
Male spontaneously hypertensive rats (=SHR, insulin resistant strain from Charles River; aged 6 months) were equipped with telemetry transmitters for continuous monitoring of blood pressure and heart rate. Telemetry transmitters for continuous monitoring of blood pressure, heart rate and locomotor activity (TA11PA-C40, Data Sciences, USA) were implanted intraabdominally under inhalative halothane anesthesia. A midline abdominal incision was made, and the abdominal aorta was visualized by removal of retroperitoneal fat and connective tissue. A ligature was placed caudal of the renal arteries, the aorta was punctured with a 22G needle, and the catheter was advanced into the aorta. The entry point was sealed with tissue adhesive (Vetbond®, 3M, USA), the ligature was removed, and the abdominal incision was closed. […]
On the day of the experiments, blood pressure was first monitored for 30 min under baseline (untreated) conditions before a group of animals received sildenafil (3 mg/kg), and another one sildenafil (3 mg/kg) combined with compound of Formula IV (10 μmol/kg) via injection into the caudal vein. Blood pressure was then measured for another 30 min. […]

For experiment [2], the system named is Male Sprague-Dawley rats. The experiment in a line: Big-ET-induced hypertension following intravenous bolus administration in rats. The class given is in vivo, rat. To be noted: for Maximal Big-ET-induced increase in SAP: anaesthetised rats, i.v. bolus sildenafil 1 mg/kg and/or compound of Formula IV 10 μmol/kg, 0.5 nmol/kg Big-ET 8 min later, mean increase from baseline. How it is done: 1. Big-ET-Induced Hypertension Following Intravenous Bolus Administration in Rats
Male Sprague-Dawley rats (˜[…], fed a standard chow diet, fasted for 18 h prior to the experiments, with free access to drinking water) were anaesthetised with 1 ml/kg Rompun/Ketavet 1:1, and then transferred to servo-controlled, heated tables to maintain body temperature at 37° C. A pressure transducer (Statham) was connected to one carotid artery for measurement of arterial blood pressure. Both jugular veins were cannulated for compound and Big-ET-infusion (Big-ET=endogenous precursor of endothelin), respectively. After an equilibration period of 20 minutes (=min), the animals received either vehicle (10% arlatone G, 10% ethanol, 80% H2O), sildenafil (1 mg/kg), compound of Formula IV (10 μmol/kg), or a combination of sildenafil+compound of Formula IV intravenously (over 1 min in a total volume of 2 ml/kg body weight). 8 min later, 0.5 nmol/kg Big-ET was infused (over 1 min; Big-ET was from Bachem, Heidelberg). Systolic (SAP) and diastolic arterial blood pressures and heart rate were recorded every 5 min for the next 15 min.
The maximal pressor and bradycardic effects were typically reached within 5 min following Big-ET administration.
as §1

`CCCc1nn(C)c2c(=O)[nH]c(-c3cc(S(=O)(=O)N4CCN(C)CC4)ccc3OCC)nc12` [Sildenafil, sildenafil]: the “Average change in systolic blood pressure” value in experiment [1] is given as −10.5 mm Hg. Moreover, in experiment [2] (after i.v. sildenafil 1 mg/kg, until timepoint of Big-ET application), the “time for which the drop in blood pressure was stable” value is listed as “at least 8 min”. Moreover, the “Maximal Big-ET-induced increase in SAP” value in experiment [2] is 42.6 mm Hg. For the same molecule, the “drop in systolic blood pressure as compared to baseline” value in experiment [2] (immediately after i.v. administration, before the Big-ET challenge, sildenafil 1 mg/kg, compound of Formula IV 10 μmol/kg) came to 15±3 mm Hg.

For `O=C(O)CN1C(=O)C(NC(=O)C2(CC(CCc3ccccc3)C(=O)O)CCCC2)CCc2ccccc21` (stereo not drawn) [compound of Formula IV, 2-[1-(1-carboxymethyl-2-oxo-2,3,4,5-tetrahydro-1H-benzo[b]azepin-3-ylcarbamoyl)-cyclopentylmethyl]-4-phenyl-butyric acid], the “Maximal Big-ET-induced increase in SAP” value in experiment [2] worked out at 43.0 mm Hg. In experiment [2] (compound of Formula IV 10 μmol/kg i.v. with sildenafil 1 mg/kg, before Big-ET challenge), the “effect on the hypotensive action of sildenafil” value is “not reinforce the hypotensive action of sildenafil”.
